Four substances from US6180600A, “CD8 antagonists” (Thomas Jefferson University, priority 1997, dated 2001) can be followed below.

Experiment [1] relates to cytotoxic T-cell mediated lympholysis of 51Cr labelled EL-4 (H-2b) targets. The experiment is described as follows: 4 hour 51Cr release assay: inhibition of cytotoxic T-cell mediated lympholysis by peptide. It is filed as cell-based, mouse (AKR/J anti C57BL/6 effectors). As to conditions: for inhibition of specific lysis of targets: peptide 100, 10 or 1 μg/ml pre-incubated 30 minutes at 37° C. with effectors, Effector:Target 30:1, 10:1, 3:1, 1:1, 4 hour lysis. The procedure: The effect of peptide on cytotoxicity was measured in a 4 hour ^51 Cr release assay. H-2^b specific effectors were generated in a AKR/J (H-2^k) anti C57BL/6 (H-2^b) mixed lymphocyte reaction. The stimulators (C57BL/6 spleen cells) are gamma-irradiated at 1500 RADS. The targets were obtained from a tumor cell line, EL-4 (H-2^b), that were labelled with Na^51 CrO4. On Day 5 the effectors are harvested and counted. The peptide, at concentrations of 100 μg/ml, 10 μg/ml or 1 μg/ml, was first incubated for 30 minutes at 37° C. with effectors of varying numbers and then ^51 Cr labelled targets were added in a 4 hour specific lysis experiment. The target cell lysis was assessed at Effector:Target ratios of 30:1, 10:1, 3:1, and 1:1. Toxic effects of the peptide was determined by the % specific lysis above background that was obtained by incubating just peptide and labelled targets. No toxic effects were observed. Also, anti-CD8 monoclonal antibody that blocks the interaction resulting in lowered lympholysis is used in the assay.

The test system of experiment [2] is activation of CTL in AKR/J anti C57BL/6 mixed lymphocyte reaction. The experiment is described as follows: Inhibition of activation/generation of cytotoxic T-cells: mixed lymphocyte reaction in presence of peptide, then 51Cr release. It is filed as cell-based, mouse. The following applies: peptide present during MLR; effectors washed on Day-6; 4-hour lysis of EL-4 targets. The protocol:
The effect of the peptide on the activation of CTL capable of lympholysis was determined by generating effector T-cells in AKR/J anti C57BL/6 mixed lymphocyte reaction in the presence of peptide. On Day-6, effectors are washed and then ^51 Cr-labelled EL-4 targets were added in a 4-hour specific lysis experiment.

The test system of experiment [3] is allogeneic skin graft rejection. Description: Murine skin transplantation (tail skin allograft onto bm1 recipients). It is filed as in vivo, mouse.
Excerpt: Tail skin from C57BL/7 [H-2b] donor is grafted onto the ventral side of bm1 recipient tails. The donors are asphyxiated and 2×4 mm tail pieces are cut. These grafts are placed in 0.1% BSA in PBS on ice. Recipients are anesthetized in isoflurane chamber. While still anesthetized, grafting beds of 10×10 mm on the ventral side of the tail are cut. Two grafting beds per mouse are made, one for syngeneic graft and the other for the allogeneic graft. The grafts are turned 180' and placed in the beds such that the hair of the graft grows in the opposite direction. The grafts are trimmed if necessary such that they fit in the beds without skin hanging over the edge of the beds. A blunt glass tube is placed over the grafts and taped into place. This glass is removed on day 2 post-transplantation.
Five animals per treatment group are used and treatment is prior to transplantation. The untreated group is injected into the tail vein with 200 μl of PBS on Day 0.
Grafts are observed every other day for signs of rejection. […] Grafts are considered rejected due to mechanical failure if the grafts are rejected by Day 3.
For experiment [4], the system named is GVHD, primarily CD8+ based. The experiment is described as follows: Murine model of GVHD (B10.BR ATBM plus CD8+ T-cells into lethally irradiated host). The format is in vivo, mouse. As to conditions: 0.5 mgs peptide on Day 0, 3 and 6; FIG. 2. The protocol: Donor bone marrow is harvested from tibias and femurs of B10.BR mice. T-cells are eliminated from the bone marrow by treatment with anti-Thy1.2 and complement. Complement treatment for 2 cycles at 37° C. for 1 hour each results in more than 90% pure population of bone marrow cells. 10×10^6 T-cell depleted bone marrow [ATBM] cells are injected into the tail vein. Donor splenocytes undergo red blood cell lysis followed by B cell and CD4+ T-cells are depletion using anti-J1J and anti-RL147 antibodies, respectively. This purified CD8+ T-cell population from donors (5×10^6 cells) is injected into the tail vein of the animal. The host is lethally irradiated at 850 cGy approximately 6 hours prior to bone marrow transplantation. Characteristic features of murine acute GVHD include weight loss, diarrhea and loss of hair and death. Body weights were monitored before and after treatment. The treated mice were housed in sterile conditions and observed daily for acute GVHD-like reactions. Lethally irradiated mice reconstituted with ATBM only survive without signs of disease. Mice are treated with 0.5 mgs of SC2 peptide on Day 0, 3 and 6.

Bridge positions count the residues as written; N and C are the ends. Ends that are not written are not given here.

For the substance “C-D-E-K-L-N-S-S-K-L-C (CDEKLNSSKLC; not fully specified; printed as C-D-E-K-L-N-S-S-K-L-C; cysteine pairing not given here) [SC11]”, in experiment [1], the “inhibition of specific lysis of targets” value was “does not”. In addition, in experiment [2], the “inhibition of specific lysis of targets (effectors generated in presence of peptide)” value was “show inhibition of specific lysis of targets in a concentration dependent manner”.
Turning to C-S-S-H-N-K-P-C (CSSHNKPC) [SC2], in experiment [3] (0.5 mgs/200 μl PBS in the tail vein on Day 0, FIG. 1), the skin graft survival entry is reported as “consistently prolonged skin graft survival with biological significance”. In experiment [1], the “inhibition of specific lysis of targets” value is recorded as “inhibits specific lysis of targets in a concentration dependent manner”. In experiment [4], the “onset of GVHD” value was “delays the onset of GVHD”. Also, the “inhibition of specific lysis of targets (effectors generated in presence of peptide)” value in experiment [2] is reported as “show inhibition of specific lysis of targets in a concentration dependent manner”.
As for “CLSQNKPC (disulfide 1-8 (inferred)) [Wu-1, cyclic peptide consisting of human CD8 amino acids 52-57 with amino terminal and carboxy terminal cysteines]”, in experiment [1] (51[Cr]-release assay as described in Example 2, FIG. 3), the inhibition of killing result was “approximately 50%”.
For “Wu-2: linear peptide consisting of human CD8 amino acids 37-47 (CQPRGAAASPC)”, the “rejection of skin grafts” value in experiment [3] (skin transplantation assay of Example 4, FIG. 4) was “significant delay in rejection”.
